The text below walks through data of US20240140957A1, “BRIDGED COMPOUNDS AS KRAS G12D INHIBITOR AND DEGRADER AND THE USE THEREOF” (BeiGene Switzerland GmbH, priority 2021, published 2024).

In one experiment the target is GDP-loaded KRAS G12D (Homo sapiens, UniProt P01116, G12D). Description: KRAS G12D Probe Displacement Assay. It is filed as binding. To be noted: KRAS G12D 0.5 nM, biotinylated probe 2 4 nM; read-out: KRAS G12D Probe Displacement Assay IC50.
Experiment [1] concerns pERK1/2 (THR202/TYR204) in AsPC-1 cells. The experiment in a line: pERK Assay (HTRF) in AsPC-1 cells. It is filed as cell-based. The note with it: Homo sapiens, ASPC1, 2 h compound treatment.
The target in the next experiment is GDP-loaded WT KRAS (Homo sapiens, UniProt P01116). Description: KRAS WT Probe Displacement Assay. It counts as binding. The note with it: WT KRAS 3 nM, biotinylated probe 1 60 nM; read-out: KRAS WT Probe Displacement Assay IC50.
Chain of GDP-loaded WT KRAS (P01116 1-188 isoform P01116-2): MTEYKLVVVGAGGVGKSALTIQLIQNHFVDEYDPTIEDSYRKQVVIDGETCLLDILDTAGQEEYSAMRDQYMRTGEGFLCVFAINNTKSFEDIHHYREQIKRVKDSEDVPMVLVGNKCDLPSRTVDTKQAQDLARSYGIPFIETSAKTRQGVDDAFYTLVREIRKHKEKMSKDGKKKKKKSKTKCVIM

Chain of GDP-loaded KRAS G12D (P01116 1-188 isoform P01116-2 G12D): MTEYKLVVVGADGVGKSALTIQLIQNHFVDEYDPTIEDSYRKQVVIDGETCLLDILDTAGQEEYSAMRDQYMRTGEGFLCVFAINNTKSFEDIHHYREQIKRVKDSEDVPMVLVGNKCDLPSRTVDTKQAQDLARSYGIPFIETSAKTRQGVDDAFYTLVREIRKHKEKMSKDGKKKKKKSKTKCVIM

For `C[C@@H](CN1CCC(F)CC1(C)C)Oc1nc(N2CC3CCC(C2)N3)c2cc(C(F)(F)F)c(-c3ccc(F)c4sc(N)nc34)c(F)c2n1` (stereo partly drawn) [Example E72, 4-(4-(3,8-diazabicyclo[3.2.1]octan-3-yl)-8-fluoro-2-(((2S)-1-(4-fluoro-2,2-dimethylpiperidin-1-yl)propan-2-yl)oxy)-6-(trifluoromethyl)quinazolin-7-yl)-7-fluorobenzo[d]thiazol-2-amine], the IC50 on GDP-loaded KRAS G12D came to 3.9 nM; in experiment [1], 1080 nM; on GDP-loaded WT KRAS it was 120 nM.

Turning to `Cc1ccc(-c2c(C(F)(F)F)cc3c(N4CC5CCC(C4)N5)nc(OC[C@@]45CCCN4C[C@H](F)C5)nc3c2F)c2nc(N)sc12` [Example E73, 4-(4-(3,8-diazabicyclo[3.2.1]octan-3-yl)-8-fluoro-2-(((2R,7aS)-2-fluorotetrahydro-1H-pyrrolizin-7a(5H)-yl)methoxy)-6-(trifluoromethyl)quinazolin-7-yl)-7-methylbenzo[d]thiazol-2-amine], the IC50 on GDP-loaded KRAS G12D was 0.57 nM; in experiment [1], 68 nM; on GDP-loaded WT KRAS, 15.5 nM.

As for `Nc1nc2c(-c3c(C(F)(F)F)cc4c(N5CC6CC(C5)N6)nc(OC[C@@]56CCCN5C[C@H](F)C6)nc4c3F)ccc(F)c2s1` [Example E74, 4-(4-(3,6-diazabicyclo[3.1.1]heptan-3-yl)-8-fluoro-2-(((2R,7aS)-2-fluorotetrahydro-1H-pyrrolizin-7a(5H)-yl)methoxy)-6-(trifluoromethyl)quinazolin-7-yl)-7-fluorobenzo[d]thiazol-2-amine], the IC50 on GDP-loaded KRAS G12D was 0.42 nM; in experiment [1] it was 349 nM; at GDP-loaded WT KRAS, 4.8 nM.

`Nc1nc2c(-c3c(Cl)cc4c(N5CC6CCC(C5)N6)nc(OC[C@@]56CCCN5C[C@H](F)C6)nc4c3F)c(F)cc(F)c2s1` [Example E75, 4-(4-(3,8-diazabicyclo[3.2.1]octan-3-yl)-6-chloro-8-fluoro-2-(((2R,7aS)-2-fluorotetrahydro-H-pyrrolizin-7a(5H)-yl)methoxy)quinazolin-7-yl)-5,7-difluorobenzo[d]thiazol-2-amine]: the IC50 was determined as 0.23 nM on GDP-loaded KRAS G12D, 40 nM in experiment [1] and 1.8 nM at GDP-loaded WT KRAS.

Consider `Cc1c(-c2ccc(F)c3sc(N)nc23)c(C(F)(F)F)cc2c(N3CC4CCC(C3)N4)nc(OC[C@@]34CCCN3C[C@H](F)C4)nc12` [Example E76, 4-(4-(3,8-diazabicyclo[3.2.1]octan-3-yl)-2-(((2R,7aS)-2-fluorotetrahydro-1H-pyrrolizin-7a(5H)-yl)methoxy)-8-methyl-6-(trifluoromethyl)quinazolin-7-yl)-7-fluorobenzo[d]thiazol-2-amine], for which the figures for the IC50 (on GDP-loaded KRAS G12D; in experiment [1]; on GDP-loaded WT KRAS) were 0.12 nM, 58 nM and 4.8 nM, respectively.

With `Cc1cc(N)nc(-c2c(C(F)(F)F)cc3c(N4CC5CCC(C4)N5)nc(OC[C@@]45CCCN4C[C@H](F)C5)nc3c2F)c1C(F)(F)F` [Example E77, 6-(4-(3,8-diazabicyclo[3.2.1]octan-3-yl)-8-fluoro-2-(((2R,7aS)-2-fluorotetrahydro-1H-pyrrolizin-7a(5H)-yl)methoxy)-6-(trifluoromethyl)quinazolin-7-yl)-4-methyl-5-(trifluoromethyl)pyridin-2-amine], the figures for the IC50 (at GDP-loaded KRAS G12D; in experiment [1]; on GDP-loaded WT KRAS) were 0.52 nM, 122 nM and 33 nM, respectively.

Consider `Cc1c(F)c(N)nc(-c2c(Cl)cc3c(N4CC5CCC(C4)N5)nc(OC[C@@]45CCCN4C[C@H](F)C5)nc3c2F)c1C(F)(F)F` [Example E78, 6-(4-(3,8-diazabicyclo[3.2.1]octan-3-yl)-6-chloro-8-fluoro-2-(((2R,7aS)-2-fluorotetrahydro-1H-pyrrolizin-7a(5H)-yl)methoxy)quinazolin-7-yl)-3-fluoro-4-methyl-5-(trifluoromethyl)pyridin-2-amine], for which the IC50 on GDP-loaded KRAS G12D turned out to be 0.99 nM; in experiment [1], 159 nM; at GDP-loaded WT KRAS it was 101 nM.

On to `Cc1cc(N)nc(-c2c(F)cc3c(N4CC5CCC(C4)N5)nc(OC[C@@]45CCCN4C[C@H](F)C5)nc3c2F)c1C(F)(F)F` [Example E79, 6-(4-(3,8-diazabicyclo[3.2.1]octan-3-yl)-6,8-difluoro-2-(((2R,7aS)-2-fluorotetrahydro-1H-pyrrolizin-7a(5H)-yl)methoxy)quinazolin-7-yl)-4-methyl-5-(trifluoromethyl) pyridin-2-amine], for which the figures for the IC50 (on GDP-loaded KRAS G12D; in experiment [1]; on GDP-loaded WT KRAS) were 1.1 nM, 153 nM and 178 nM, respectively.

As to `Nc1cc(Cl)c(C(F)(F)F)c(-c2c(Cl)cc3c(N4CC5CCC(C4)N5)nc(OC[C@@]45CCCN4C[C@H](F)C5)nc3c2F)c1` [Example E80, 3-(4-(3,8-diazabicyclo[3.2.1]octan-3-yl)-6-chloro-8-fluoro-2-(((2R,7aS)-2-fluorotetrahydro-1H-pyrrolizin-7a(5H)-yl)methoxy)quinazolin-7-yl)-5-chloro-4-(trifluoromethyl)aniline], the IC50 is 0.66 nM on GDP-loaded KRAS G12D, 307 nM in experiment [1] and 46 nM on GDP-loaded WT KRAS.

In the case of `Oc1cccc(F)c1-c1c(Cl)cc2c(N3CC4CCC(C3)N4)nc(OC[C@@]34CCCN3C[C@H](F)C4)nc2c1F` [Example E81, 2-(4-(3,8-diazabicyclo[3.2.1]octan-3-yl)-6-chloro-8-fluoro-2-(((2R,7aS)-2-fluorotetrahydro-1H-pyrrolizin-7a(5H)-yl)methoxy)quinazolin-7-yl)-3-fluorophenol], the IC50 turned out to be 6.9 nM on GDP-loaded KRAS G12D, 2380 nM in experiment [1] and 990 nM on GDP-loaded WT KRAS.

As to `Nc1nc2c(-c3c(C(F)(F)F)cc4c(N5CC6CCC(C5)N6)nc(OC[C@@]56CCCN5C[C@H](F)C6)nc4c3Cl)ccc(Cl)c2s1` [Example E82, 4-(4-(3,8-diazabicyclo[3.2.1]octan-3-yl)-8-chloro-2-(((2R,7aS)-2-fluorotetrahydro-1H-pyrrolizin-7a(5H)-yl)methoxy)-6-(trifluoromethyl)quinazolin-7-yl)-7-chlorobenzo[d]thiazol-2-amine], the IC50 came to 0.3 nM on GDP-loaded KRAS G12D, 64 nM in experiment [1] and 5 nM at GDP-loaded WT KRAS.

In the case of `Nc1nc2c(-c3c(C(F)(F)F)cc4c(N5CC6CCC(C5)N6)nc(OC[C@@]56CCCN5C[C@H](F)C6)nc4c3F)ccc(Cl)c2s1` [Example E83, 4-(4-(3,8-diazabicyclo[3.2.1]octan-3-yl)-8-fluoro-2-(((2R,7aS)-2-fluorotetrahydro-1H-pyrrolizin-7a(5H)-yl)methoxy)-6-(trifluoromethyl)quinazolin-7-yl)-7-chlorobenzo[d]thiazol-2-amine], the values for the IC50 (at GDP-loaded KRAS G12D; in experiment [1]; on GDP-loaded WT KRAS) were 0.13 nM, 61 nM and 3.8 nM, respectively.

In the case of `Nc1nc2c(-c3c(C(F)(F)F)cc4c(N5CC6CCC(C5)N6)nc(OC[C@@]56CCCN5C[C@H](F)C6)nc4c3F)c(F)cc(F)c2s1` [Example E84, 4-(4-(3,8-diazabicyclo[3.2.1]octan-3-yl)-8-fluoro-2-(((2R,7aS)-2-fluorotetrahydro-1H-pyrrolizin-7a(5H)-yl)methoxy)-6-(trifluoromethyl)quinazolin-7-yl)-5,7-difluorobenzo[d]thiazol-2-amine], the IC50 on GDP-loaded KRAS G12D is 0.36 nM; in experiment [1], 28 nM; at GDP-loaded WT KRAS it was 2.4 nM.

Turning to `Nc1nc2c(-c3c(C(F)(F)F)cc4c(N5CC6CCC(C5)N6)nc(OC[C@@]56CCCN5C[C@H](F)C6)nc4c3F)cc(F)c(F)c2s1` [Example E85, 4-(4-(3,8-diazabicyclo[3.2.1]octan-3-yl)-8-fluoro-2-(((2R,7aS)-2-fluorotetrahydro-1H-pyrrolizin-7a(5H)-yl)methoxy)-6-(trifluoromethyl)quinazolin-7-yl)-6,7-difluorobenzo[d]thiazol-2-amine], the IC50 on GDP-loaded KRAS G12D was determined as 0.21 nM; in experiment [1], 124 nM; on GDP-loaded WT KRAS, 5.6 nM.

`CC(F)CNC1C[C@H]2CC[C@@H]1N2c1nc(OC[C@@]23CCCN2C[C@H](F)C3)nc2c(F)c(-c3ccc(F)c4sc(N)nc34)c(C(F)(F)F)cc12` (stereo partly drawn) [Example E86, 7-fluoro-4-(8-fluoro-4-((1S,4R)-2-((2-fluoropropyl)amino)-7-azabicyclo[2.2.1]heptan-7-yl)-2-(((2R,7aS)-2-fluorotetrahydro-1H-pyrrolizin-7a(5H)-yl)methoxy)-6-(trifluoromethyl)quinazolin-7-yl)benzo[d]thiazol-2-amine]: the IC50 turned out to be 1.4 nM at GDP-loaded KRAS G12D, 320 nM in experiment [1] and 16 nM on GDP-loaded WT KRAS.

`Nc1nc2c(-c3c(OC(F)(F)F)cc4c(N5CC6CCC(C5)N6)nc(OC[C@@]56CCCN5C[C@H](F)C6)nc4c3F)ccc(F)c2s1` [Example E87, 4-(4-(3,8-diazabicyclo[3.2.1]octan-3-yl)-8-fluoro-2-(((2R,7aS)-2-fluorotetrahydro-1H-pyrrolizin-7a(5H)-yl)methoxy)-6-(trifluoromethoxy)quinazolin-7-yl)-7-fluorobenzo[d]thiazol-2-amine]: the IC50 at GDP-loaded KRAS G12D stood at 0.24 nM; in experiment [1] it was 112 nM; at GDP-loaded WT KRAS it was 25 nM.

Consider `CN1C[C@H](F)CC1(C)COc1nc(N2CC3CCC(C2)N3)c2cc(Cl)c(-c3ccc(F)c4sc(N)nc34)c(F)c2n1` (stereo partly drawn) [Example E89, 4-(4-(3,8-diazabicyclo[3.2.1]octan-3-yl)-6-chloro-8-fluoro-2-(((4R)-4-fluoro-1,2-dimethylpyrrolidin-2-yl)methoxy)quinazolin-7-yl)-7-fluorobenzo[d]thiazol-2-amine], for which the half-inhibitory concentration (IC50) worked out at 2.4 nM at GDP-loaded KRAS G12D, 556 nM in experiment [1] and 121 nM at GDP-loaded WT KRAS.

Broadly, the IC50 is the midpoint of a concentration-inhibition curve.
